The subject of test [1] is CD3/CD28 stimulated TRiPS cells. The experiment in a line: Custom AntibodyArray of cell extracts of CD3/CD28 stimulated TRiPS cells. To be noted: 15 μg/ml, 30 minutes; antibody array, phospho-specific detection. The test is classed as cell-based, human. The method, then: Day 18 TRiPS cells, 1×10^6, were incubated for 30 minutes at 37° C., either with nothing added (“Nil”), with 1 μl CD3/CD28 Dynabeads (Dynal, Oslo, Norway) (“CD3/CD28 beads”) per 100,000 cells, or with CD3/CD28 beads and 15 μg/ml of the compound of formula II (Cpd II). After the incubation, the cells were lysed in Cell-Lytic Mammalian Cell Extraction Reagent (Sigma). After centrifugation to pellet cellular debris, the supernatants (cell extracts) were obtained.
The cell extracts (supernatants) were then analyzed using a Custom AntibodyArray™ manufactured by Hypromatrix Inc., Worcester, Mass., following the manufacturer's instructions. The Custom AntibodyArray™ is a nylon membrane blotted with antibodies to the proteins listed below. Briefly, the cell extracts were incubated with duplicate Custom AntibodyArray™, s for 2 hours at room temperature with slow shaking, followed by three washes with Tris buffer (150 mM NaCl, 25 mM Tris, 0.05% Tween-20, pH 7.5). HRP-labeled antibodies specific for phosphorylated-tyrosine, phosphorylated-serine and phosphorylated-threonine in Tris buffer were added, and the arrays incubated for 2 hours. After three more washes with Tris buffer, a peroxidase-reactive luminescent substrate was added. The arrays were visualized by exposure to X-ray film. Densitometry of the X-ray films was measured by scanning and computer analysis.

Another test relates to NFκB. The experiment in a line: Activated NFκB in TNFα- or VEGF-treated HIAECs (TransAM assay). The test is classed as cell-based. As to conditions: Homo sapiens, VEGF 10 ng/ml, Cpd II 15 μg/ml, read-out: Percent Inhibition (NFκB). As to the method: Passage 8 (human iliac artery endothelial cells (HIAECs) (obtained from ATCC; catalog no. CC-2545) were grown to confluence in 25 cm^2 flasks in EGM-2 medium. Eighteen hours prior to the experiment, the medium was replaced with EGM-2 medium containing 0.1% FCS plus heparin, GA1000 (gentamycin) and bovine pituitary extract (all from Cambrex) to place the cells in a resting state. To perform the experiment the medium was aspirated from the flasks, and the following additives were added to the flasks in fresh medium (total volume of 5 ml/flask): 15 μg/ml of the compound of formula II (Cpd II) or 10 μM LY 294002. The flasks were incubated 2 hours at 37° C., 5% CO2. After this incubation, VEGF or TNFα was added to give a final concentration 10 ng/ml, and the flasks were incubated for an additional 30 minutes. Then, the amount of NFκB was determined using a TransAM™ NFκB p65/NFκB p50 Transcription Factor Assay Kit and a Nuclear Extract Kit from Active Motif North America, Carlsbad, Calif., as described in Example 12.

The subject of the next test is Ras. Nature of the test: Ras activation pulldown assay in TRiPS cells. As to conditions: 15 μg/ml. The format is cell-based, human. The method, then: Day 10 TRiPS cells, 1×10^6, were incubated with 15 μg/ml of the compound of formula II (Cpd II) for 1 hour at 37° C. Then, the cells were incubated with CD3/CD28 beads (1 μl per 100,000 cells) (obtained from Dynal) for 10 minutes at 37° C. The cells were then lysed with a mild buffer (supplied with Pierce EZ-Detect activation kit described below) to produce cell extracts. Protein concentrations of the resulting extracts were determined by bicinchoninic acid (BCA) assay (Pierce) and placed on ice for immediate use.
Pulldown assays were performed using Pierce EZ-Detect activation kits according to the manufacturer's instructions utilizing GST-RAF-1-RBD and GST-RalGDS-RBD for Ras and RAP-1 respectively. Briefly, 400 μg total protein from each extract was combined with recombinant protein and glutathione resin and incubated at 4° C. for one hour with gentle shaking The resin was then washed to remove unbound protein and the activated Ras and RAP-1 proteins were removed by boiling in the presence of SDS-PAGE loading dye containing reducing agent. Ras and RAP-1 western blots were performed to visualize the proteins using antibodies supplied with the kit. Densitometry of the X-ray films was done by scanning and computer analysis.

Test [2] relates to peripheral blood lymphocytes (PBL). The experiment in a line: PHA-induced cell clumping of PBL. The format is cell-based, human. To be noted: Example 1, PBL of donor GR283; compound 5, 15, 50 μg/ml; 5 μg/ml PHA; 72 hours. The method, then: Whole blood was drawn from GR283, a human volunteer with known allergies, into a glass vacutainer tube containing no anticoagulant. This blood was allowed to clot, and the serum was removed by centrifugation and then heat inactivated by placing it in a water bath at 56° C. for 30 minutes. Whole blood from GR283 was also drawn into a glass vacutainer tube containing heparin and used for peripheral blood lymphocytes (PBL) isolation as follows. Whole blood was layered over room temperature Histopaque 1077 solution and centrifuged at 2000 rpm for 15 minutes at room temperature. Cells at the plasma-Histopaque interface were then removed and washed with culture medium (IMDM medium with 10% heat-inactivated GR283 serum plus 1% penicillin/streptomycin) at 37° C.
The compound of formula II (see above) and methylphenidate (both obtained from Dr. Jeffrey D. Winkler, University of Pennsylvania, Philadelphia, Pa.) in culture medium were added to wells of a 96-well plate to give final concentrations of 5 μg/ml, 15 μg/ml and 50 μg/ml of the compound of formula II and of methylphenidate. […] Then, GR283's PBL in culture medium were added to the wells to give a final concentration of 150,000 cells per well, and the plates were incubated at 37° C., 5% CO2 for 24 hours. […]

Another test has as its system IL-8. Nature of the test: IL-8 production by CD3/CD28-activated TRiPS cell line (ELISA). The format is cell-based, human. To be noted: 15 μg/ml; CD3/CD28 Dynabeads, 24 hours. Background: An ELISA detects its analyte on a solid surface through an enzyme-linked reagent.

Molecules are shown by their SMILES.

As for `COC(=O)C(c1ccc(-c2ccccc2)cc1)C1CCCCN1` (stereo not drawn) [Cpd II], in test [1], the “Effect of Cpd II on the protein in CD3/CD28 stimulated TRiPS cells: 14-3-3” value is given as “Slightly decreased the level”, the “Effect of Cpd II on the protein in CD3/CD28 stimulated TRiPS cells: IL-2” value is recorded as “Decreased level back to basal levels (Nil control)”, the “Effect of Cpd II on the protein in CD3/CD28 stimulated TRiPS cells: IL-4” value is given as “Decreased level back to basal levels (Nil control)” and the “Effect of Cpd II on the protein in CD3/CD28 stimulated TRiPS cells: IL-7y” value is “Decreased level back to basal levels (Nil control)”. Also, in test [1], the “Effect of Cpd II on the protein in CD3/CD28 stimulated TRiPS cells: IkB-r” value is given as “Decreased level back to basal levels (Nil control)”, the “Effect of Cpd II on the protein in CD3/CD28 stimulated TRiPS cells: IkB-α” value is listed as “Slightly decreased the level”, the “Effect of Cpd II on the protein in CD3/CD28 stimulated TRiPS cells: IkB-β” value is “Decreased level back to basal levels (Nil control)” and the “Effect of Cpd II on the protein in CD3/CD28 stimulated TRiPS cells: IkB-ε” value is “Slightly decreased the level”. In test [1], the “Effect of Cpd II on the protein in CD3/CD28 stimulated TRiPS cells: JAK2” value is given as “Activated”, the “Effect of Cpd II on the protein in CD3/CD28 stimulated TRiPS cells: JNK1” value is recorded as “Decreased level back to basal levels (Nil control)”, the “Effect of Cpd II on the protein in CD3/CD28 stimulated TRiPS cells: JNK2” value is “Decreased level back to basal levels (Nil control)” and the “Effect of Cpd II on the protein in CD3/CD28 stimulated TRiPS cells: JNK3” value is reported as “Decreased level back to basal levels (Nil control)”. For the same molecule, in test [1], the “Effect of Cpd II on the protein in CD3/CD28 stimulated TRiPS cells: MEK1” value is on record as “Decreased level to below basal levels (Nil control)”, the “Effect of Cpd II on the protein in CD3/CD28 stimulated TRiPS cells: MEKK1” value was “Decreased level back to basal levels (Nil control)”, the “Effect of Cpd II on the protein in CD3/CD28 stimulated TRiPS cells: PI3kinaseP85” value is reported as “Activated” and the “Effect of Cpd II on the protein in CD3/CD28 stimulated TRiPS cells: RAP1” value is “Activated”. In test [1], the “Effect of Cpd II on the protein in CD3/CD28 stimulated TRiPS cells: RAP2” value is “Activated”, the “Effect of Cpd II on the protein in CD3/CD28 stimulated TRiPS cells: STAT4” value was “Activated”, the “Effect of Cpd II on the protein in CD3/CD28 stimulated TRiPS cells: STAT5b” value is given as “Activated” and the “Effect of Cpd II on the protein in CD3/CD28 stimulated TRiPS cells: STAT6” value is reported as “Slightly decreased the level”. Moreover, the inhibition – broadly, the drop in the measured response relative to a control, in per cent – at 15 µg/mL with NFκB was found to be 70%. Moreover, in the test on Ras, the “inhibition of Ras protein” value was “very strong inhibition of Ras protein”. In test [2], the “amount of cell clumping induced by PHA” value is recorded as “reduced the amount of cell clumping induced by 5 μg/ml PHA in a dose-dependent manner”. Besides, the “IL-8 production by the TRiPS cell line” value with IL-8 was “no effect”.

For the origin of these results see patent US8076485B2, “Methylphenidate derivatives and uses of them” (priority 2005, dated 2011).
